Assay: Human HepG2 cell viability assay in 384 well format
Type: toxicity, cell-based
Parameters: dose 125 nL, time 70.5 hour; concentration not given beside the values
Conditions: HepG2 cells, read-out: Inhibition

SMILES	cytotoxicity at 70.5 h [%]
Cc1ccc(NC(=O)c2cc(S(=O)(=O)N3CCCCC3)c[nH]2)cc1F	-8.62
CCOc1ccc(NC(=O)c2cnc(N3CCCC3)nc2C)cc1	-15.6
O=C(N1CCOCC1)N1CC[C@H]2[C@@H]1CCC(=O)N2c1ccccc1	-1.24
O=C(c1cnccn1)N1CCCC2(CCCN2Cc2cccnc2)C1 (stereo unspecified)	-1.76
O=C(c1ccc[nH]1)N1CCCC2(CCCN2Cc2cccnc2)C1 (stereo unspecified)	11.9
O=C(C1CC1)N1CC[C@H]2[C@@H]1CCC(=O)N2c1ccccc1	-2.42
CCS(=O)(=O)NCC1OCCc2cn(CCOC)nc21 (stereo unspecified)	-3.26
COC[C@H]1CC[C@H]2[C@H](CCN2S(=O)(=O)Cc2ccccc2)O1	-4.05
Cc1cc(C(=O)N2CCCC3(CCCN3Cc3cccnc3)C2)[nH]n1 (stereo unspecified)	12.8
CS(=O)(=O)N1CCC2(CC1)CC(OCC1CCOCC1)CO2 (stereo unspecified)	-7.58
Cc1ccccc1C(=O)N1CCCn2nnc(Cn3cccn3)c2C1	-9.23
CCS(=O)(=O)N1CC[C@H]2OCC[C@@]2(c2nnc(C)o2)C1	-7.55
COCC1CN(CC2CCOCC2)Cc2cn(CC3CCCC3)nc21 (stereo unspecified)	-7.67
O=C(c1ccc[nH]1)N1CCOC2(COCCN(c3cncnc3)C2)C1 (stereo unspecified)	-7.73
COCC1CN(Cc2ccoc2)Cc2cn(C)nc21 (stereo unspecified)	-7.39
Cc1noc(C2CN(S(C)(=O)=O)Cc3ccnn3C2)n1 (stereo unspecified)	-7.77
Cc1noc(C)c1CN1C[C@@H](OCC(=O)N(C)C)[C@H]2OCCC[C@H]21	-9.4
O=S(=O)(C1CC1)N1CC[C@]2(C[C@H](OCC3CCOCC3)CO2)C1	-9.21
CCCS(=O)(=O)N1CC[C@H]2OCC[C@@]2(c2nnc(C)o2)C1	8.91
Cc1nnc([C@@]23CCO[C@@H]2CCN(S(C)(=O)=O)C3)o1	-0.978
Cc1noc(C2CN(S(=O)(=O)C3CC3)Cc3ccnn3C2)n1 (stereo unspecified)	10.2
CN(C)C(=O)c1n[nH]c2c1CCN(Cc1nccs1)C2	-4.93
CS(=O)(=O)N1CCCC12CCCN(C(=O)c1ccncc1)C2 (stereo unspecified)	-7.69

SMILES	cytotoxicity at 70.5 h [%]
Cc1ccc(C)c(Oc2cc(-n3nc(C)c(C#N)c3N)nc(C)n2)c1	-6.07
O=C(Cn1nc(Br)nc1Br)N1CCOCC1	27.3
O=c1[nH]cnc2[nH]c(N3CCOCC3)nc12	26.5
COc1ccc(C2SCC(=O)N2c2ncc(C)s2)cc1 (stereo unspecified)	-1.35
Cc1cnc(N2C(=O)CSC2c2cccs2)s1 (stereo unspecified)	28.2
CC(C)Sc1nnc(CCNC(=O)OC(C)(C)C)o1	26.1
COc1ccc2c(ccn2CCN)c1	5.97
CC(C)CN1C(=O)c2ccc(C(=O)NCCc3c[nH]cn3)cc2C1=O	-0.52
Cc1ccc2c(ccn2CCC(=O)NC[C@@H]2CCCN3CCCC[C@H]23)c1	1.22
COc1ccc(C2CC(=O)Oc3cc(C)[nH]c(=O)c32)cc1 (stereo unspecified)	-2.66
COC(=O)CC(c1ccc(OC)c(OC)c1)c1oc(C)cc(=O)c1O (stereo unspecified)	5.4
O=C(CNC(=O)N1CCc2c([nH]c3ccc(Cl)cc23)C1)N1CCOCC1	37.5
COC(=O)COc1nc(CC(C)C)c2c(c1C#N)CCCC2	7.01
O=C(NCCN1CCCCC1)c1nc2ccccc2c(=O)[nH]1	4.35
O=C(NCCN1CCNCC1)c1nc2ccccc2c(=O)[nH]1	-2.57
NC(=O)c1nc(COc2ccc3c(c2)OCO3)no1	-12.9
CC(C)[C@H](NC(=O)NC1CCS(=O)(=O)C1)C(=O)NCc1cccnc1 (stereo partly specified)	6.1
O=C(c1nc(COc2ccc3c(c2)OCO3)no1)N1CCCC1	-3.83
CC(C)[C@H](NC(=O)NC1CCS(=O)(=O)C1)C(=O)NCc1ccccc1Cl (stereo partly specified)	0.909
O=C(Cn1ccc2c(Cl)cccc21)N[C@@H](C(=O)O)c1ccccc1	0.804
COc1ccc(NC(=O)Cn2nc(C)ccc2=O)cc1OC	0.232
COCCn1ccc(=O)c(OCC(=O)Nc2ccccc2)c1C	-10.1
COCCn1ccc(=O)c(OCC(=O)Nc2cccc(C(C)=O)c2)c1C	-4.4

SMILES	cytotoxicity at 70.5 h [%]
CC1=Nc2c(c(=O)[nH]n2C(C)C)C(c2ccc(F)c(F)c2)S1 (stereo unspecified)	-4.57
CC(C)n1ncc2c1NC(=O)CC21C(=O)Nc2c(Cl)cccc21 (stereo unspecified)	-5.46
O=c1cc2c(nn1CN1CCN(c3ccccc3)CC1)CCC2	-4.25
O=c1cc2c(nn1CN1CCOCC1)CCC2	-3.75
Cc1cc(C)c2c(c1)C1(CC(=O)Nc3c1cnn3C(C)C)C(=O)N2 (stereo unspecified)	-5.35
CC(C)CC1SCC(=O)Nc2c1cnn2C(C)C (stereo unspecified)	-9.09
O=C(CCc1nc2cccnc2[nH]1)NCc1cccnc1	0.275
CC(C)NC(=O)[C@@H](NC(=O)N1CCN(c2ccc(Cl)cc2)CC1)C(C)C	6.91
O=C(NCCCO)C1CC(=O)N(c2n[nH]c3cccc(F)c23)C1 (stereo unspecified)	1.35
COc1cc(C2CC(=O)Oc3cc(C)[nH]c(=O)c32)ccc1OC(F)F (stereo unspecified)	10.5
O=C(NCCN1CCOCC1)c1cc(-c2ccc3c(c2)CCO3)n[nH]1	2
CC1(C)OCC(CNC(=O)c2cnn(-c3ccc(Cl)cc3)c2N)O1 (stereo unspecified)	7.47
COc1ccc(-n2ncc(C(=O)NCC3COC(C)(C)O3)c2N)cc1 (stereo unspecified)	-5.98
CC(=O)N1N=C(c2ccccc2)OC1C(=O)NCCC1=CCCCC1 (stereo unspecified)	-0.565
COCCNC(=O)c1cn(C(C)(C)C)c2ncccc12	-5.71
COCC(C)NC(=O)c1cn(C(C)(C)C)c2ncccc12 (stereo unspecified)	-6.59
COc1ccc(NC(=O)N2CCCC2c2ccco2)cc1OC (stereo unspecified)	-0.202
Cc1ccc(C)c(C(NC(=O)C2CC2)c2cccnc2)c1 (stereo unspecified)	-1.23
COc1ccc(C2=C(C)C(N3CCc4ccccc43)=NS2(=O)=O)cc1	-12.7
COc1ccc(C2=C(C)C(N3CCc4ccccc4C3)=NS2(=O)=O)cc1	48.7
COC(=O)c1ccccc1NC(=O)c1nc2ccccc2n(C)c1=O	32.8
Cc1ccc(C2CCCCCN2Cc2cn(C)nc2C)cc1 (stereo unspecified)	-12.1
Cc1ccc(C2CCCCCN2Cc2cn(C)nc2C)s1 (stereo unspecified)	-19.6

SMILES	cytotoxicity at 70.5 h [%]
COc1cccc(CN2CCCCCC2c2cccs2)c1O (stereo unspecified)	-6.94
CCOC(=O)CCNC(=O)N1CCN(c2nc3ccccc3n2C)CC1	-9.85
COc1cc(NC(=O)Cn2ccc3sc(C)cc3c2=O)cc(OC)c1	-22
CCS(=O)(=O)N1CCCc2ccc(NC(=O)Cc3ccc(F)cc3)cc21	36.7
CCc1cnc2c(c1NCc1ccncc1)c(=O)n(C)c(=O)n2C	-8.17
Cc1cnc2n(c1=O)C(CC(=O)NCc1cc(-c3cccs3)on1)CS2 (stereo unspecified)	55.7
Cc1sc(NC(=O)CN(C)S(C)(=O)=O)c(C#N)c1C	10
O=C(CSC1=NS(=O)(=O)c2cc(F)ccc2N1)Nc1cccc(Cl)c1	-2.86
O=S1(=O)N=C(SCc2ccc(Cl)cc2)Nc2ccc(F)cc21	7.01
CNC(=O)CSc1cnn(CC(=O)Nc2cccc(Cl)c2C)c(=O)c1Cl	-16.3
O=C(CCc1ccccc1)NCC1CCN(Cc2ccsc2)CC1	5.29
CCCc1nnsc1C(=O)NCC1CCN(S(C)(=O)=O)CC1	-4
Cc1ccc(N2CCN(C(=O)COc3ccccc3)CC2)nn1	-1.33
COc1ccc(F)cc1S(=O)(=O)NCC(c1cccn1C)N(C)C (stereo unspecified)	-1.76
Cc1ccnc(OCC(=O)N2CCC(C(N)=O)CC2)n1	-4.44
COCC(C)(O)CNC(=O)COc1ccccc1OC (stereo unspecified)	-3.09
O=C(c1ccc(=O)[nH]n1)N1CC(c2nc(Cc3ccccc3)no2)C1	-0.421
Cc1ncc(C(=O)N2CCC(C(=O)NC3CCCC3)C2)c(C)n1 (stereo unspecified)	-6.35
O=C(CN1CCN(CC(O)C2CC2)CC1)NCc1ccc(F)cc1 (stereo unspecified)	-0.525
COC(=O)CN1CC(c2nc(Cc3ccccc3)no2)C1	-6.57
Cn1cc(CN2CC[C@H]3O[C@H](C(=O)NC4CC4)CC[C@H]32)c2ccccc21	-3.36
CC(=O)N1CCO[C@@H]2CN(C(=O)c3ccc4ncccc4c3)CC[C@@H]2C1	-3.03
O=S(=O)(C1CC1)N1CC[C@@H](OCC2CC2)[C@@H]1Cc1ccncc1	-4.77

SMILES	cytotoxicity at 70.5 h [%]
Cc1cnc(N2CCC3(CC2)CC3CNC(=O)C2CCC2)nc1 (stereo unspecified)	-1.64
CN(C)C[C@H]1OC[C@@H]2CCN(C(=O)c3ccc[nH]3)C[C@@H]21	-4.7
CN1C[C@@H]2COC[C@]2(C(=O)NCCc2cccs2)C1	-5.55
CCCS(=O)(=O)N1Cc2ccnn2CC(c2nc(C)no2)C1 (stereo unspecified)	-4.93
COc1ccc(N2CCCC3(C2)CN(c2cccnc2)CCO3)cc1 (stereo unspecified)	-9.47
Cc1ccc(Nc2ncnc3c2CCN(CC2CCOC2)CC3)cc1 (stereo unspecified)	-7.38
c1cnc(N2CCO[C@H]3CN(Cc4csnn4)C[C@H]32)cn1	-11.1
Cn1cc(CN2CCC3(CCC(C(=O)NCC4CC4)C3)CC2)cn1 (stereo unspecified)	-9.54
Cc1ccsc1C(=O)N1CC[C@H]2CO[C@H](CN(C)C)[C@H]2C1	-6.98
O=C(c1ccncc1)N1CCOC2(COCCN(c3cncnc3)C2)C1 (stereo unspecified)	-11.1
CS(=O)(=O)N1CCC2(CC1)COC(COc1cccnc1)C2 (stereo unspecified)	-8.18
CC(C)CCN1CCC2(CCCN(c3nncs3)C2)C1 (stereo unspecified)	-5.61
Cc1nc(C)n(CC2CN(Cc3nccs3)Cc3nccn3C2)n1 (stereo unspecified)	-2.68
CCOCC(=O)N1CC[C@H]2OCC[C@@]2(COc2ncccc2F)C1	-12
O=C(c1ccncc1)N1CCC2(CC1)C(=O)Nc1ccccc12	-10.1
O=C(c1ccncc1)N1CCOC2(COCCN(c3cccnc3)C2)C1 (stereo unspecified)	-8.51
c1cnc(N2CCOC3(CCCN(c4cnccn4)C3)C2)nc1 (stereo unspecified)	-8.79
CN(C)C[C@]12COC[C@H]1CN(Cc1ccccn1)C2	-8.89
c1cncc(COCC2CN(Cc3cccnc3)Cc3ccnn3C2)c1 (stereo unspecified)	-9.95

Reference: ChEMBL document CHEMBL3507680, “University of Dundee, Gates Library screen for HepG2 cell viability”
